From patent publication US7439251B2, “Methods and compositions for treatment of central and peripheral nervous system disorders and novel compounds useful therefor” (Israel Institute for Biological Research, priority 2002, dated 2008) come the findings set out here.

Broadly, the Ki is a dissociation constant, usually derived from enzyme kinetics or from competition with a known ligand.

A short description of series [1]: Stability of 10% w/w AF150(S) in paraffin oil. Type of series: physicochemical. Here is the method:
In another embodiment of the invention, AF150(S) is provided in pharmaceutical acceptable paraffin oil. […] Ph) was examined at 40° C. under air or nitrogen atmosphere, in the presence or absence tocopherol. Samples were analyzed after two months storage. TLC, […] and GC were used to detect and determine the quantity of possible degradation product(s). Color changes were determined in comparison with Paraffin oil with or without tocopherol under the same conditions. AF150(S) was stable in the paraffin oil formulation.

Series [2] can be described thus: Working memory (MWM) in ischemic rats. To be noted: 0.5 mg/kg po chronic, vs DDW. Format: in vivo, rat. Here is the method:
This was done by a bilateral carotid artery occlusion in Sprague Dawley rats: […] Ischemia was induced in 21 rats whereas the other 21 rats served as sham controls. Under pentobarbital anasthesia (30 mg/kg, ip), sodium nitropruside 4.8 mg/kg/hr) was infused through a cannula implanted in the tail vein, for a period of 25 min. […] Immediately afterwards 1.8 mEq sodium bicarbonate solution was administerd ip in order to minimize systemic acidosis. The sham operated rats were anesthetized as the ischemic rats and were infused with saline. Their carotid arteries were exposed but were not subject to carotid clamping. […] Animals were allowed to recover for 3 weeks prior to behavioral testing. […] The evaluation of the animals was done using the working-memory matching-to-sample paradigm in the MWM. […] REL and RPL reflect the relative saving in performance from trial no 1 to trial no 2. REL and RPL were analyzed by a 3-way ANOVA (2×2×3), with one repeated variable (weeks) and two non-repeated variables (Operation-ischemia/sham-operated and Treatment-AF150(S)/DDW).

The next series concerns Aβ / γ-secretase. The experiment in a line: Aβ levels in primary rat cortical neurons infected with Semliki Forest virus encoding human APP695, C99 or C111. Type of series: cell-based. Here is the method:
The mechanism of Aβ modulation was tested using C99 (and C111) that are truncated constructs generated from APP. Unlike APP, C99/C111 are direct substrates for γ-secretase. With both constructs it is possible to directly assay for γ-secretase activity, while with APP this is not possible. Both constructs are—as compared to APP—inefficient substrates for […]. Synergistc effects were also evaluated with CDX (methyl-β-cyclodextrin), an agent which extracts cholesterol from the plasma membrane. CDX inhibits also Aβ production CDX-treated cells were treated in addition to the respective muscarinic agonist for 5 min to reduce the cholesterol content.

A further series has as its system Aβ. The experiment in a line: CSF and cortical Aβ in nbm-lesioned (hypocholinergic) rabbits. Type of series: in vivo, rabbit. To be noted: vs lesioned saline controls.
Series [3] addresses muscarinic receptors (QNB, rat cerebellar membranes) (Rattus norvegicus, UniProt P10980). As to conditions: read-out: QNB binding, Ki.
For series [4], the system named is Adrenergic α1A, α1B, α2A, α2B, α2C, β1, β2; BZD peripheral; Clozapine; Dopamine D1, D2, D3; GABA A; Glutamate sites; Glycine; Histamine H1-H3; Nicotinic …. Put plainly: Selectivity binding panel for AF267B.
A short description of series [5]: Morris water maze in AF64A-injected rats. Type of series: in vivo, rat. Here is the method:
AF64A or saline-injected (6 months old) Sprague-Dawley rats were tested in the Morris Water Maze (MWM) task. The paradigm used assesses spatial learning abilities in a reference memory regimen, and involves training (days 1-4), transfer test (Probe trial—day 4, 3 min following the last training trial) and reversal test (day 5).
Drugs and PBS were administered once a day for 5 days before starting the behavioral testing, and then for the duration of the 5-day experiment, 30 min before testing.
The three measures, escape latency, path length and swimming speed were analyzed by MANOVA, followed by simple main effects contrast analysis.

Another series has as its system rat hippocampal neurons. Put plainly: Survival, morphology and apoptosis of rat hippocampal neurons exposed to Aβ. Type of series: cell-based. Here is the method:
This study was performed in rat hippocampal primary cell cultures using the methods described by Garrido J L et al. (FASEB J 2002; 16:1982).

The target of a further series is T1, human M3 receptor (Homo sapiens, UniProt P20309).
T1 construct: expressed in transfected cells
Put plainly: Arachidonic acid (AA) release, human M3. Type of series: cell-based.

In series [6] the test system is Isolated Guinea Pig Right Atrium. Put plainly: Isolated guinea pig right atrium. Here is the method: (§1) • 1. Astemizole (human ether-a-go-go related gene (HERG) Channel) Binding Assay. […] Isolated Guinea Pig Right Atrium (atrial fibrillation). […] Effects of AF292 (dose 5 mg/kg orally) on cardiac electrophysiological, cardio-haemodynamic in instrumented, awake dogs. Healthy trained and chronically instrumented female Beagle dogs of varying age and ranging in body weight from 9.4 to 12 kg, were used for recording of the cardiovascular parameters: heart rate, diastolic and systolic blood pressure, pressure rate product, LV dp/dt max, LV dp/dt max/pd, LV dp/dt min, cardiac output, stroke volume, systemic vascular resistance and the ECG parameters (PQ-, QRS-, QT-, QTcBazett—(QTcB), QTcFridericia—(QTcF) and QTcVan de Water—(QTcVdW) interval duration and QT-dispersion. During the last 18 hours prior to the experiments, the dogs had no access to food. Water was available ad libitum. At the beginning of each experiment, control values of the various parameters were recorded for at least 30 min. Thereafter, 5 mg/kg of AF292 (n=4) or the corresponding volume of the solvent (n=4) was administered orally by gavage. The various haemodynamic parameters were recorded continuously for 4 hours thereafter.

Series [7] in a line: Cardiac electrophysiology and haemodynamics in instrumented awake dogs. Format: in vivo, Beagle dog. To be noted: 5 mg/kg orally, 4 hours. Here is the method: as §1
A further series concerns the target CPY2D6 (Homo sapiens, UniProt P10635). Put plainly: P450 inhibition, microtiter plate. To be noted: up to 10 μM. Type of series: in vitro ADME. Here is the method: (§2) Cytochrome P450 activity can be an indicator for potential drug-drug interactions. AF292 was evaluated in a microtiter plate assay for P450 inhibition.
In the next series the target is CYP2C19 (Homo sapiens, UniProt P33261). Put plainly: P450 inhibition, microtiter plate. Type of series: in vitro ADME. To be noted: up to 10 μM. Here is the method: as §2
In the next series the target is CYP3A4 (Homo sapiens, UniProt P08684). Put plainly: P450 inhibition, microtiter plate. Format: in vitro ADME. As to conditions: up to 10 μM. Here is the method:
as §2

Series [8] deals with Human α-glycoprotein (AGP). Put plainly: Protein binding, human α-glycoprotein. Type of series: in vitro ADME. As to conditions: 10 μM. Here is the method:
Protein binding studies were carried out in human plasma, α1-glycoprotein, human serum […] (HSA), and Dulbecco's Phosphate Buffered Saline (PBS). AF292 was added to a final concentration of 10 μM. […] (μM) and in human α-glycoprotein (AGP), (see Table 1).

SMILES strings stand for the structures.

Chain of muscarinic receptors (QNB, rat cerebellar membranes) (P10980 whole entry): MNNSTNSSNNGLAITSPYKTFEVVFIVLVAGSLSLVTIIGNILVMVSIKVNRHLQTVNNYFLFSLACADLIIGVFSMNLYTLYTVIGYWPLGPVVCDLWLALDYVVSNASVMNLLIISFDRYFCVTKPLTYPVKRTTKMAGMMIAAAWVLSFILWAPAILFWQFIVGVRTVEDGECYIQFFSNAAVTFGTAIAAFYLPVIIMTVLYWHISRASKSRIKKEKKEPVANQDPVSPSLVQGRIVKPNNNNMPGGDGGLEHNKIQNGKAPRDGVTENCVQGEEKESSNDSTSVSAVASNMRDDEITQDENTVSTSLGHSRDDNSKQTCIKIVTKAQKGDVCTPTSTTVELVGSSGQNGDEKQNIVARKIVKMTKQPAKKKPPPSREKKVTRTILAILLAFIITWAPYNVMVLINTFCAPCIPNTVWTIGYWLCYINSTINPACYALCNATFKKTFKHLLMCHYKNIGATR
Chain of CYP2C19 (P33261 whole entry): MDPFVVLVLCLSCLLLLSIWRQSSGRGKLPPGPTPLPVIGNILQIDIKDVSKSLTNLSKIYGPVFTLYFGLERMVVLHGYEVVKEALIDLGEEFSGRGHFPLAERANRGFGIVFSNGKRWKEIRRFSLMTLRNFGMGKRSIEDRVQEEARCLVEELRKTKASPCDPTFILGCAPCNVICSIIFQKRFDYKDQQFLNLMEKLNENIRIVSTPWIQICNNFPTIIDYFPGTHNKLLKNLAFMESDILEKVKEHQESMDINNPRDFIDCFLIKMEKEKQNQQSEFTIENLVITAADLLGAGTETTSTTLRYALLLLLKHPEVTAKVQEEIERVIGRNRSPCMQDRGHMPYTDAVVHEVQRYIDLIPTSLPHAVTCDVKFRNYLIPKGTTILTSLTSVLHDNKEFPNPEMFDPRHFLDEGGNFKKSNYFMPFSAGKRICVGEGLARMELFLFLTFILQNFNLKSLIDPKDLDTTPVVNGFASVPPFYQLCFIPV
Chain of CPY2D6 (P10635 whole entry): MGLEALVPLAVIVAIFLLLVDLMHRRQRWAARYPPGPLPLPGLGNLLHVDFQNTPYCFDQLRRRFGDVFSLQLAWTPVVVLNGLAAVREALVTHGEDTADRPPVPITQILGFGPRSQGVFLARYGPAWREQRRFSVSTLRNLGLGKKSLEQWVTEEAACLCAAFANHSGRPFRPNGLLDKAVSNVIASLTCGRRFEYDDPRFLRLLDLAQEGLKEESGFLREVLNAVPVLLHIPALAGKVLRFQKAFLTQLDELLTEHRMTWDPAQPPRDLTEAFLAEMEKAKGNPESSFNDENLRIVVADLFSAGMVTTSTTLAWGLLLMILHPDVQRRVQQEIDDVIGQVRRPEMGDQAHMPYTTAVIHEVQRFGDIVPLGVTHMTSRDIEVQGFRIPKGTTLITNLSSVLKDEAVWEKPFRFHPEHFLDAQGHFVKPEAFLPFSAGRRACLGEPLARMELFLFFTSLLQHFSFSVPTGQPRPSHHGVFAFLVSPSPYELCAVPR
Chain of CYP3A4 (P08684 whole entry): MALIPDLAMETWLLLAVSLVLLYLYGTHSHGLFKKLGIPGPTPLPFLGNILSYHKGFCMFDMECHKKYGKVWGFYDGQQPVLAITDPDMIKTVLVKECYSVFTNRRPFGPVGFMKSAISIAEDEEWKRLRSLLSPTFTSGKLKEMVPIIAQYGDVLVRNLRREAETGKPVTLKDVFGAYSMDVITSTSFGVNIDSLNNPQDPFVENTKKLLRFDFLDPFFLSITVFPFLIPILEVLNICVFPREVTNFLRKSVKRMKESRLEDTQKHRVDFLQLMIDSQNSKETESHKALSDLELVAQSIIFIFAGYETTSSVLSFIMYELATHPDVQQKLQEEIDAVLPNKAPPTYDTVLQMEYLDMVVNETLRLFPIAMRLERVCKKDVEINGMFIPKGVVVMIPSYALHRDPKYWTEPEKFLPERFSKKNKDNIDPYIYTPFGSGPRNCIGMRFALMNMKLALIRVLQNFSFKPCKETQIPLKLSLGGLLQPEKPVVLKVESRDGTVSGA
T1 sequence (P20309 whole entry): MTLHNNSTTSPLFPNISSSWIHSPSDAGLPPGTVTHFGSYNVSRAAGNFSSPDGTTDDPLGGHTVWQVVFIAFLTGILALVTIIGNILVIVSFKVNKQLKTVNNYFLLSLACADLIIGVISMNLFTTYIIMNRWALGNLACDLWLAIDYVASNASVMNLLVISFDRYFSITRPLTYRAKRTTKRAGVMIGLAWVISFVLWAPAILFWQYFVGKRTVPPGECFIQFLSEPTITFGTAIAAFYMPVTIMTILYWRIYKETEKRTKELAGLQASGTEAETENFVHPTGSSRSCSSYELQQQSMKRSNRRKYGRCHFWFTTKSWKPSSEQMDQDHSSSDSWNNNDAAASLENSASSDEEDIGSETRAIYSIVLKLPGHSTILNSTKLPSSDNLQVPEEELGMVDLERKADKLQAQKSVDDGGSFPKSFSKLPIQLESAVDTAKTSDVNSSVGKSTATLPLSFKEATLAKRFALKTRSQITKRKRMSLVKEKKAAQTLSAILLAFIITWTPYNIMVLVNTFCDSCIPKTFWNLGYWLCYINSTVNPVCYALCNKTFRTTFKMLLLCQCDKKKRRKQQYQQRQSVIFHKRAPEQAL

With `CC1=NCC2(CCN(C)CC2)S1` [AF150(S), 2,8-Dimethyl-1-thia-3,8-diaza-spiro[4.5]dec-2-ene], in [1] (40° C., two months), the “Stability in the paraffin oil formulation” value is given as “stable”. The figures for the Color change result in series [1] (samples containing 0.5% w/w tocopherol) and in series [1] (samples without tocopherol) were “color was not developed” and “slight yellow color”, respectively. In addition, in series [2], the “working memory performance (REL and RPL)” value is “significantly improved working memory performance”.
For the compound `CC[C@@H]1SC2(CCN(C)CC2)NC1=O` [AF267B, (S)-2-ethyl-8-methyl-1-thia-4,8-diaza-spiro[4.5]decan-3-one], the “reduction of the release of Aβ-like fragments (3-4 Kda)” value in the series on Aβ / γ-secretase is “approximately 50%”. In addition, the p3 fragment result in the series with Aβ / γ-secretase (1 mM, vs control) is “complete loss”. For the same compound, the “Aβ with cholesterol lowering agent CDX” value with Aβ / γ-secretase (with CDX (5 mM)) is reported as “undetectable Aβ levels”. Moreover, the “CSF sAPPα bands” value in the series with Aβ is on record as “no significant difference”. Moreover, the “CSF Aβ (4 kDa band)” value in the series with Aβ (p=0.05) was “noticeable decrease”. Moreover, the Ki in [3] stood at 45.2 ± 10.8 µM. For the same compound, in [4], the “binding to other receptors and enzymes” value is reported as “no binding at all”. In addition, in series [5] (AF64A rats, 1 mg/kg), the reversal test result is given as “tendency for improvement” and the “training, escape latency” value is on record as “tendency for improvement”. For the same compound, in series [5] (AF64A rats, 3 mg/kg), the reversal test entry is “tendency for impairment” and the training performance result was “tended to impair performance”. In series [5] (AF64A rats, 0.3, 1, 3 mg/kg po), the “learning (training)” value is “no significant effect on learning”. In [5] (AF64A rats, all doses), the “probe trial, escape latency” value is “complete spatial bias”. Further, in the series with rat hippocampal neurons (0.5-50 μM, compound alone), the “survival and morphology of hippocampal neurons” value is “does not affect the survival and morphology”. Moreover, the “neurites / dendritic shrinkage induced by Aβ1-40” value in the series with rat hippocampal neurons (blocked by pirenzepine 10 nM) is recorded as “protected the neurons”.
Regarding `CC[C@@H]1SC2(CCNCC2)NC1=O` [AF292, (S)-2-Ethyl-1-thia-4,8-diaza-spiro[4.5]decan-3-one], the “AA release, agonist activity” value on human M3 receptor was “inactive as an agonist”. Further, the contractile force entry in series [6] is recorded as “no significant effect”. Also, in series [6] (vs vehicle group), the contractile rate entry is “tended to slightly reduce”. Further, in series [7], the “hemodynamic or ECG parameters” value is “no statistically significant and relevant effect”. Moreover, the P450 inhibition entry on CPY2D6, at CYP2C19 and on CYP3A4 was “did not induce significant” in each case. For the same compound, the “Protein Binding” value in series [8] was “Human α-glycoprotein (AGP) = 0%”.
